Assay [1] has as its system effects of serotonin. The following applies: rats, compound 48/80; known serotonin-antagonists; cited from earlier work.
The subject of assay [2] is effects of serotonin. The assay can be described thus: Antagonistic activity on the effects of serotonin in the gastric lesion test (lesions induced by compound 48/80). The class given is in vivo, rats of a Wistar inbred strain. As to conditions: Rattus norvegicus, po, read-out: gastric lesion test ED50. The procedure, abridged: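 Fasted male Wistar rats (220–250 g) dosed orally with compound; 1 h later 2.5 mg/kg s.c. H1 antagonist, then compound 48/80 i.v. Stomachs examined 4 h afterwards for distension and glandular lesions (scored 0 to +++); ED50 is the oral dose (mg/kg) abolishing both in 50% of rats.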

Assay [3] concerns compound 48/80-induced lethality. Kind of assay: Protection of rats from compound 48/80-induced lethality. The class given is in vivo, rats of an inbred Wistar strain. As to conditions: Rattus norvegicus, 4 h, read-out: Compound 48/80 lethality test in rats ED50, s.c. or p.o. 1 h before compound 48/80 0.5 mg/kg i.v.; protection of 50% of animals, survival after 4 hours. The procedure, abridged: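 Male inbred Wistar rats (240-260 g), starved overnight, dosed subcutaneously or orally with compound or 0.9% NaCl before compound 48/80 challenge. Survival at 4 hours counted as protection. ED50 in mg/kg is the dose protecting 50% of animals from lethality.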

[4] abbreviates: compound 48/80 1 mg/kg i.v., distension and lesions of stomach completely absent in 50% of rats.

Read-outs that look alike come from different tables or passages of the source.

`CN1CCC(=C2c3ccccc3CCc3sccc32)CC1` [pizotifen]: the “prevention of cyanosis of ears and extremities, lesions in the glandular area of the stomach and abnormal gastric distension” value (“prevention” below) in the assay on effects of serotonin [1] is “prevent completely”.
Turning to `O=C(CCCN1CCC2(CC1)C(=O)NCN2c1ccccc1)c1ccc(F)cc1` [spiperone], the “prevention” value in the assay with effects of serotonin [1] is reported as “prevent completely”.
Take `NC(=O)C1(N2CCCCC2)CCN(CCCC(=O)c2ccc(F)cc2)CC1` [pipamperone]: in the assay with effects of serotonin [1], the “prevention” value was “prevent completely”.
Regarding `CN1CCN2c3ccccc3Cc3ccccc3C2C1` (stereo not drawn) [mianserin], the “prevention” value in the assay on effects of serotonin [1] was “prevent completely”.
For the molecule `CN1CCC(=C2c3ccccc3C=Cc3ccccc32)CC1` [cyproheptadine], the “prevention” value in the assay with effects of serotonin [1] is listed as “prevent completely”.
Regarding `CN1C[C@H](CNC(=O)OCc2ccccc2)C[C@@H]2c3cccc4c3c(cn4C)C[C@H]21` [metergoline], the “prevention” value with effects of serotonin [1] is reported as “prevent completely”.
With `CC[C@@H](CO)NC(=O)[C@@H]1C=C2c3cccc4c3c(cn4C)C[C@H]2N(C)C1` [methysergide], the “prevention” value in the assay with effects of serotonin [1] is on record as “prevent completely”.
For the molecule `CN(C)CCCSc1ccccc1NC(=O)/C=C/c1ccccc1` [cinanserin], the “prevention” value in the assay on effects of serotonin [1] is “prevent completely”.
For the molecule `O=c1c2ccccc2[nH]c(=S)n1CCN1CCC(Cc2nc3ccccc3n2Cc2ccc(F)cc2)CC1` [Compound 460, 3-[2-[4-[[1-[(4-fluorophenyl)methyl]-1H-benzimidazol-2-yl]methyl]-1-piperidinyl]ethyl]-2,3-dihydro-2-thioxo-4(1H)-quinazolinone], the ED50 was found to be 0.63 mg/kg in the assay on effects of serotonin [2] (setting [4]) and 0.08 mg/kg in assay [3].
For the molecule `Fc1ccc(Cn2c(CC3CCN(C4CCN(c5ncccn5)CC4)CC3)nc3ccccc32)cc1` [Compound 347, 4-[[1-[(4-fluorophenyl)methyl]-1H-benzimidazol-2-yl]methyl]-1'-(2-pyrimidinyl)-[1,4'-bipiperidine]], the ED50 was 0.63 mg/kg in the assay on effects of serotonin [2] (setting [4]) and 0.08 mg/kg in assay [3].
Turning to `O=c1cc[nH]c(NCCN2CCC(Cc3nc4ccccc4n3Cc3ccc(F)cc3)CC2)n1` [Compound 331, 2-[[2-[4-[[1-[(4-fluorophenyl)methyl]-1H-benzimidazol-2-yl]methyl]-1-piperidinyl]ethyl]amino]-4(1H)-pyrimidinone], the ED50 in the assay on effects of serotonin [2] (setting [4]) was 0.02 mg/kg; in assay [3], 0.04 mg/kg.
On to `OCCN1CCC(Cc2nc3ccccc3n2Cc2ccc(F)cc2)CC1` [Compound 107, 4-[[1-[(4-fluorophenyl)methyl]-1H-benzimidazol-2-yl]methyl]-1-piperidineethanol], for which the results for the ED50 (in the assay with effects of serotonin [2]; in assay [3]) were 0.08 mg/kg and 0.04 mg/kg, respectively.
Regarding `Fc1ccc(Cn2c(CC3CCN(CCNc4cc(Cl)ncn4)CC3)nc3ccccc32)cc1` [Compound 384], the results for the ED50 (in the assay with effects of serotonin [2] (setting [4]); in assay [3]) were 0.63 mg/kg and 0.08 mg/kg, respectively.
On to `Fc1ccc(Cn2c(CC3CCN(CCNc4nnc(Cl)c5ccccc45)CC3)nc3ccccc32)cc1` [Compound 381, 4-chloro-N-[2-[4-[[1-[(4-fluorophenyl)methyl]-1H-benzimidazol-2-yl]methyl]-1-piperidinyl]ethyl]-1-phthalazinamine], for which the ED50 turned out to be 0.16 mg/kg with effects of serotonin [2] (setting [4]) and 0.08 mg/kg in assay [3].
As for `Cc1ncsc1CCN1CCC(Cc2nc3ccccc3n2Cc2ccc(F)cc2)CC1` [Compound 182], the ED50 turned out to be 0.63 mg/kg with effects of serotonin [2] (setting [4]) and 0.04 mg/kg in assay [3].
Regarding `Nc1nccnc1C(=O)NCCN1CCC(Cc2nc3ccccc3n2Cc2ccc(F)cc2)CC1` [Compound 436, 3-amino-N[2-[4-[[1-[(4-fluorophenyl)methyl]-1H-benzimidazol-2-yl]methyl]-1-piperidinyl]ethyl]-2-pyrazinecarboxamide], the ED50 was found to be 0.63 mg/kg in the assay with effects of serotonin [2] (setting [4]) and 0.01 mg/kg in assay [3].
